What follows are molecules tested against recombinant human AChE (Homo sapiens, UniProt P22303) (assay: Reversible inhibition of AChE, Ellman method, enzyme-inhibitor dissociation constants). Details: ± standard error; ATCh substrate, 25 °C, pH 7.4.
Sequence of recombinant human AChE (P22303 32-614): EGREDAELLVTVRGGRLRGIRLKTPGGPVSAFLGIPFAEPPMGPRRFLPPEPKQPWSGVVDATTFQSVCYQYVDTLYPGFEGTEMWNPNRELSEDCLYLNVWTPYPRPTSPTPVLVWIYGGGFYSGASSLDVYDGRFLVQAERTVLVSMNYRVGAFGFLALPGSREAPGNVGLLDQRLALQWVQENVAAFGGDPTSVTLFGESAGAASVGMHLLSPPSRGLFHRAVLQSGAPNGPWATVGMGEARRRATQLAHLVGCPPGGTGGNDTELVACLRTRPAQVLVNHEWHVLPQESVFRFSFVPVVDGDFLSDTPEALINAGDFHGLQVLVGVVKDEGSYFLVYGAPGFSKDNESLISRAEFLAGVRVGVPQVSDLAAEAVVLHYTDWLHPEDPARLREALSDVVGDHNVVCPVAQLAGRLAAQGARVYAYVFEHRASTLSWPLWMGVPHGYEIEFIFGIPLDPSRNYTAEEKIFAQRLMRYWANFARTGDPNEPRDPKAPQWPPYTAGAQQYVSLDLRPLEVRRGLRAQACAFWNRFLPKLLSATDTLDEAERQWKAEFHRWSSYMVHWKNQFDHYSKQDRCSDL
Assay type: biochemical
Protocol: (§1) As a source of BChE, a purified human BChE, and as AChE, a recombinant human AChE was used, both enzymes kindly provided by Dr. F. Nachon (Département de Toxicologie, Armed Forces Biomedical Research Institute, France). The concentrated stocks of enzymes (BChE: 5.6 µM; AChE: 0.20 µM) were diluted in a phosphate sodium buffer 0.1 M (pH 7.4) containing 0.1% BSA before starting the experiments.
(§2) Enzyme activities were measured spectrophotometrically by the Ellman method at […] using 0.30 mM DTNB as thiol reagent, ATCh as substrate and water in 0.1 M phosphate buffer, pH 7.4. For the inhibition measurements, the reaction mixture contained tested compounds instead of water. […] Measurements were done at 25 °C on a Tecan Infinite M200Pro plate reader (Austria). A detailed description of measurement protocol was described previously.
(§3) The reversible inhibition of BChE and AChE by tested compounds was measured by determining the decrease of enzyme activity towards ATCh in their presence. The activities of the enzymes were measured at different substrate concentrations ([S]; 0.050–0.50 mM) in the absence (v0) and presence (vi) of the given tested compounds concentration ([I]; 0.050–200 µM, depending on the compound) selected to inhibit the enzymes for 20–80%. At least three concentrations of inhibitors for each substrate concentration were used in at least three experiments. The apparent dissociation inhibition constant (Ki,app) was calculated applying the Hunter-Downs equation and linear regression analysis (1):(1) Ki,app=vi/v0−vi⋅I=KI+KI/KS⋅S where y-intercept determines the enzyme-inhibitor dissociation constants (K(I)), while x-intercept determines the enzyme-substrate dissociation constant, K(S). The determination of kinetic constants was carried out using the GraphPadPrism 6.0 program (GraphPad Software, San Diego, CA, USA).
`C=CC1C[N+]2(Cc3c(F)cccc3Cl)CCC1C[C@@H]2[C@@H](O)c1ccnc2ccccc12` (some centres unmarked) [CN 2Cl-6F, N-(2-chloro-6-fluorobenzyl)cinchoninium bromide] showed a Ki of 17 ± 1 µM.
Work on `C=CC1C[N+]2(Cc3ccc(Br)cc3F)CCC1C[C@@H]2[C@@H](O)c1ccnc2ccccc12` (some centres unmarked) [CN 2F-4Br, N-(2-fluoro-4-bromobenzyl)cinchoninium bromide] yielded a Ki of 16 ± 1 µM.
`C=CC1C[N+]2(Cc3c(F)cccc3C(F)(F)F)CCC1C[C@@H]2[C@@H](O)c1ccnc2ccccc12` (some centres unmarked) [CN 2F-6CF3, N-(2-fluoro-6-trifluoromethylbenzyl)cinchoninium bromide] showed a Ki of 61 ± 2 µM.
Molecule `C=CC1C[N+]2(Cc3ccccc3F)CCC1C[C@@H]2[C@@H](O)c1ccnc2ccccc12` (some centres unmarked) [CN 2F] has a Ki of 80 ± 2 µM.
For `C=CC1C[N+]2(Cc3ccc(F)c(F)c3)CCC1C[C@@H]2[C@@H](O)c1ccnc2ccccc12` (some centres unmarked) [CN 3,4F], the Ki was 14 ± 0.2 µM.
Molecule `C=CC1C[N+]2(Cc3cc(F)cc(F)c3)CCC1C[C@@H]2[C@@H](O)c1ccnc2ccccc12` (some centres unmarked) [CN 3,5F] has a Ki of 34 ± 3 µM.
`C=CC1C[N+]2(Cc3cccc(C(F)(F)F)c3)CCC1C[C@@H]2[C@@H](O)c1ccnc2ccccc12` (some centres unmarked) [CN 3CF3] gave a Ki of 59 ± 2 µM.
With `C=CC1C[N+]2(Cc3cccc(F)c3)CCC1C[C@@H]2[C@@H](O)c1ccnc2ccccc12` (some centres unmarked) [CN 3F] the Ki was 13 ± 0.4 µM.
For `C=CC1C[N+]2(Cc3cccc(OC(F)(F)F)c3)CCC1C[C@@H]2[C@@H](O)c1ccnc2ccccc12` (some centres unmarked) [CN 3OCF3, N-(3-trifluoromethoxybenzyl)cinchoninium bromide], the Ki was 41 ± 2 µM.
For `C=CC1C[N+]2(Cc3ccc(C(F)(F)F)cc3)CCC1C[C@@H]2[C@@H](O)c1ccnc2ccccc12` (some centres unmarked) [CN 4CF3], the Ki was 31 ± 1 µM.
`C=CC1C[N+]2(Cc3ccc(F)cc3)CCC1C[C@@H]2[C@@H](O)c1ccnc2ccccc12` (some centres unmarked) [CN 4F, N-(para-fluorobenzyl)cinchoninium bromide] was tested, and the Ki was 3.9 ± 0.2 µM.
With `C=CC1C[N+]2(Cc3ccc(OC(F)(F)F)cc3)CCC1C[C@@H]2[C@@H](O)c1ccnc2ccccc12` (some centres unmarked) [CN 4OCF3] the Ki was 19 ± 2 µM.
Molecule `C=CC1C[N+]2(Cc3ccccc3)CCC1C[C@@H]2[C@@H](O)c1ccnc2ccccc12` (some centres unmarked) [CN Bzl] has a Ki of 121 ± 12 µM.
Work on `CCC1C[N+]2(Cc3cccc(C(F)(F)F)c3)CCC1C[C@H]2[C@H](O)c1ccnc2ccccc12` (some centres unmarked) [DHCD 3CF3, N-(3-trifluoromethylbenzyl)-10,11-dihydrocinchonidinium bromide] yielded a Ki of 25 ± 1 µM.
Work on `CCC1C[N+]2(Cc3cccc(F)c3)CCC1C[C@H]2[C@H](O)c1ccnc2ccccc12` (some centres unmarked) [DHCD 3F] yielded a Ki of 27 ± 2 µM.
Work on `CCC1C[N+]2(Cc3cccc(OC(F)(F)F)c3)CCC1C[C@H]2[C@H](O)c1ccnc2ccccc12` (some centres unmarked) [DHCD 3OCF3, N-(3-trifluoromethoxybenzyl)-10,11-dihydrocinchonidinium bromide] yielded a Ki of 36 ± 1 µM.
In the case of `CCC1C[N+]2(Cc3ccc(C(F)(F)F)cc3)CCC1C[C@H]2[C@H](O)c1ccnc2ccccc12` (some centres unmarked) [DHCD 4CF3], the Ki is reported as 15 ± 1 µM.
`CCC1C[N+]2(Cc3ccc(F)cc3)CCC1C[C@H]2[C@H](O)c1ccnc2ccccc12` (some centres unmarked) [DHCD 4F, N-(4-fluorobenzyl)-10,11-dihydrocinchonidinium bromide] gave a Ki of 31 ± 1 µM.

Each molecule was assayed against purified human BChE (Homo sapiens, UniProt P06276) (assay: Reversible inhibition of BChE, Ellman method, enzyme-inhibitor dissociation constants). Details: times higher preference for BChE over AChE.
Sequence of purified human BChE (P06276 29-602): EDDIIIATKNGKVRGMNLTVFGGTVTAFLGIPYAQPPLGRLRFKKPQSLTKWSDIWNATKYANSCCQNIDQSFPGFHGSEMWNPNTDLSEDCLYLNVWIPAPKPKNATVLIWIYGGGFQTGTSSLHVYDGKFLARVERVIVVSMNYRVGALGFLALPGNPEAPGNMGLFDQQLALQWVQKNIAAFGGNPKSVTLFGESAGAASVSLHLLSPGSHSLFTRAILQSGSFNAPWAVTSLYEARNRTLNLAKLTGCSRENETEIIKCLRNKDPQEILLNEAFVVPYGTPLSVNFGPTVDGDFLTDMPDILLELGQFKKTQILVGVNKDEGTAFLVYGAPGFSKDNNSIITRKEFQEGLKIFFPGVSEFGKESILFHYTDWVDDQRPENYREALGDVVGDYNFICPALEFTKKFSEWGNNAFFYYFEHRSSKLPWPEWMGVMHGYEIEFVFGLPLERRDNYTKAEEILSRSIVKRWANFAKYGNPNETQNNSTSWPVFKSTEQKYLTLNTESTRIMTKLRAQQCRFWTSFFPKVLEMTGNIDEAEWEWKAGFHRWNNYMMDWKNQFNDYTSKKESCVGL
Assay type: biochemical
Protocol: as §1, §2, §3
`C=CC1C[N+]2(Cc3c(F)cccc3Cl)CCC1C[C@@H]2[C@@H](O)c1ccnc2ccccc12` (some centres unmarked) [CN 2Cl-6F, N-(2-chloro-6-fluorobenzyl)cinchoninium bromide] was tested, and the “SI, selective index Ki(AChE)/Ki(BChE)” value was 14.
With `C=CC1C[N+]2(Cc3ccc(Br)cc3F)CCC1C[C@@H]2[C@@H](O)c1ccnc2ccccc12` (some centres unmarked) [CN 2F-4Br, N-(2-fluoro-4-bromobenzyl)cinchoninium bromide] the “SI, selective index Ki(AChE)/Ki(BChE)” value was 2.9.
With `C=CC1C[N+]2(Cc3c(F)cccc3C(F)(F)F)CCC1C[C@@H]2[C@@H](O)c1ccnc2ccccc12` (some centres unmarked) [CN 2F-6CF3, N-(2-fluoro-6-trifluoromethylbenzyl)cinchoninium bromide] the “SI, selective index Ki(AChE)/Ki(BChE)” value was 7.9.
With `C=CC1C[N+]2(Cc3ccccc3F)CCC1C[C@@H]2[C@@H](O)c1ccnc2ccccc12` (some centres unmarked) [CN 2F] the “SI, selective index Ki(AChE)/Ki(BChE)” value was 33.
`C=CC1C[N+]2(Cc3ccc(F)c(F)c3)CCC1C[C@@H]2[C@@H](O)c1ccnc2ccccc12` (some centres unmarked) [CN 3,4F] was tested, and the “SI, selective index Ki(AChE)/Ki(BChE)” value was 2.3.
`C=CC1C[N+]2(Cc3cc(F)cc(F)c3)CCC1C[C@@H]2[C@@H](O)c1ccnc2ccccc12` (some centres unmarked) [CN 3,5F] was tested, and the “SI, selective index Ki(AChE)/Ki(BChE)” value was 5.4.
With `C=CC1C[N+]2(Cc3cccc(C(F)(F)F)c3)CCC1C[C@@H]2[C@@H](O)c1ccnc2ccccc12` (some centres unmarked) [CN 3CF3] the “SI, selective index Ki(AChE)/Ki(BChE)” value was 13.
`C=CC1C[N+]2(Cc3cccc(F)c3)CCC1C[C@@H]2[C@@H](O)c1ccnc2ccccc12` (some centres unmarked) [CN 3F] was tested, and the “SI, selective index Ki(AChE)/Ki(BChE)” value was 2.1.
In the case of `C=CC1C[N+]2(Cc3cccc(OC(F)(F)F)c3)CCC1C[C@@H]2[C@@H](O)c1ccnc2ccccc12` (some centres unmarked) [CN 3OCF3, N-(3-trifluoromethoxybenzyl)cinchoninium bromide], the “SI, selective index Ki(AChE)/Ki(BChE)” value is reported as 8.7.
With `C=CC1C[N+]2(Cc3ccc(C(F)(F)F)cc3)CCC1C[C@@H]2[C@@H](O)c1ccnc2ccccc12` (some centres unmarked) [CN 4CF3] the “SI, selective index Ki(AChE)/Ki(BChE)” value was 5.2.
In the case of `C=CC1C[N+]2(Cc3ccc(F)cc3)CCC1C[C@@H]2[C@@H](O)c1ccnc2ccccc12` (some centres unmarked) [CN 4F, N-(para-fluorobenzyl)cinchoninium bromide], the “SI, selective index Ki(AChE)/Ki(BChE)” value is reported as 1.5.
With `C=CC1C[N+]2(Cc3ccc(OC(F)(F)F)cc3)CCC1C[C@@H]2[C@@H](O)c1ccnc2ccccc12` (some centres unmarked) [CN 4OCF3] the “SI, selective index Ki(AChE)/Ki(BChE)” value was 2.4.
With `C=CC1C[N+]2(Cc3ccccc3)CCC1C[C@@H]2[C@@H](O)c1ccnc2ccccc12` (some centres unmarked) [CN Bzl] the “SI, selective index Ki(AChE)/Ki(BChE)” value was 42.
With `CCC1C[N+]2(Cc3cccc(C(F)(F)F)c3)CCC1C[C@H]2[C@H](O)c1ccnc2ccccc12` (some centres unmarked) [DHCD 3CF3, N-(3-trifluoromethylbenzyl)-10,11-dihydrocinchonidinium bromide] the “SI, selective index Ki(AChE)/Ki(BChE)” value was 18.
`CCC1C[N+]2(Cc3cccc(F)c3)CCC1C[C@H]2[C@H](O)c1ccnc2ccccc12` (some centres unmarked) [DHCD 3F] was tested, and the “SI, selective index Ki(AChE)/Ki(BChE)” value was 84.
`CCC1C[N+]2(Cc3cccc(OC(F)(F)F)c3)CCC1C[C@H]2[C@H](O)c1ccnc2ccccc12` (some centres unmarked) [DHCD 3OCF3, N-(3-trifluoromethoxybenzyl)-10,11-dihydrocinchonidinium bromide] was tested, and the “SI, selective index Ki(AChE)/Ki(BChE)” value was 5.
For `CCC1C[N+]2(Cc3ccc(C(F)(F)F)cc3)CCC1C[C@H]2[C@H](O)c1ccnc2ccccc12` (some centres unmarked) [DHCD 4CF3], the “SI, selective index Ki(AChE)/Ki(BChE)” value was 5.
In the case of `CCC1C[N+]2(Cc3ccc(F)cc3)CCC1C[C@H]2[C@H](O)c1ccnc2ccccc12` (some centres unmarked) [DHCD 4F, N-(4-fluorobenzyl)-10,11-dihydrocinchonidinium bromide], the “SI, selective index Ki(AChE)/Ki(BChE)” value is reported as 8.

Same assay, conditions: unsubstituted 10,11-dihydro compounds
`CC[C@H]1CN2CC[C@H]1C[C@@H]2[C@@H](O)c1ccnc2ccccc12` [DHCN, 10,11-dihydrocinchonine] was tested, and the “times higher affinity of BChE for DHCN over DHCD” value was 16.

Same assay, conditions: ± standard error; ATCh substrate, 25 °C, pH 7.4
`C=CC1C[N+]2(Cc3c(F)cccc3Cl)CCC1C[C@@H]2[C@@H](O)c1ccnc2ccccc12` (some centres unmarked) [CN 2Cl-6F, N-(2-chloro-6-fluorobenzyl)cinchoninium bromide] gave a Ki of 1.2 µM.
In the case of `C=CC1C[N+]2(Cc3ccc(Br)cc3F)CCC1C[C@@H]2[C@@H](O)c1ccnc2ccccc12` (some centres unmarked) [CN 2F-4Br, N-(2-fluoro-4-bromobenzyl)cinchoninium bromide], the Ki is reported as 5.5 ± 0.3 µM.
In the case of `C=CC1C[N+]2(Cc3c(F)cccc3C(F)(F)F)CCC1C[C@@H]2[C@@H](O)c1ccnc2ccccc12` (some centres unmarked) [CN 2F-6CF3, N-(2-fluoro-6-trifluoromethylbenzyl)cinchoninium bromide], the Ki is reported as 7.7 ± 0.4 µM.
`C=CC1C[N+]2(Cc3ccccc3F)CCC1C[C@@H]2[C@@H](O)c1ccnc2ccccc12` (some centres unmarked) [CN 2F] was tested, and the Ki was 2.4 ± 0.1 µM.
Work on `C=CC1C[N+]2(Cc3ccc(F)c(F)c3)CCC1C[C@@H]2[C@@H](O)c1ccnc2ccccc12` (some centres unmarked) [CN 3,4F] yielded a Ki of 6.1 ± 0.2 µM.
Molecule `C=CC1C[N+]2(Cc3cc(F)cc(F)c3)CCC1C[C@@H]2[C@@H](O)c1ccnc2ccccc12` (some centres unmarked) [CN 3,5F] has a Ki of 6.3 ± 0.2 µM.
Work on `C=CC1C[N+]2(Cc3cccc(C(F)(F)F)c3)CCC1C[C@@H]2[C@@H](O)c1ccnc2ccccc12` (some centres unmarked) [CN 3CF3] yielded a Ki of 4.4 ± 0.2 µM.
`C=CC1C[N+]2(Cc3cccc(F)c3)CCC1C[C@@H]2[C@@H](O)c1ccnc2ccccc12` (some centres unmarked) [CN 3F] gave a Ki of 6.1 ± 0.3 µM.
Work on `C=CC1C[N+]2(Cc3cccc(OC(F)(F)F)c3)CCC1C[C@@H]2[C@@H](O)c1ccnc2ccccc12` (some centres unmarked) [CN 3OCF3, N-(3-trifluoromethoxybenzyl)cinchoninium bromide] yielded a Ki of 4.7 ± 0.2 µM.
For `C=CC1C[N+]2(Cc3ccc(C(F)(F)F)cc3)CCC1C[C@@H]2[C@@H](O)c1ccnc2ccccc12` (some centres unmarked) [CN 4CF3], the Ki was 6 ± 0.3 µM.
`C=CC1C[N+]2(Cc3ccc(F)cc3)CCC1C[C@@H]2[C@@H](O)c1ccnc2ccccc12` (some centres unmarked) [CN 4F, N-(para-fluorobenzyl)cinchoninium bromide] was tested, and the Ki was 2.6 ± 0.1 µM.
`C=CC1C[N+]2(Cc3ccc(OC(F)(F)F)cc3)CCC1C[C@@H]2[C@@H](O)c1ccnc2ccccc12` (some centres unmarked) [CN 4OCF3] was tested, and the Ki was 7.8 ± 0.3 µM.
Work on `C=CC1C[N+]2(Cc3ccccc3)CCC1C[C@@H]2[C@@H](O)c1ccnc2ccccc12` (some centres unmarked) [CN Bzl] yielded a Ki of 2.9 ± 0.3 µM.
`CCC1C[N+]2(Cc3cccc(C(F)(F)F)c3)CCC1C[C@H]2[C@H](O)c1ccnc2ccccc12` (some centres unmarked) [DHCD 3CF3, N-(3-trifluoromethylbenzyl)-10,11-dihydrocinchonidinium bromide] was tested, and the Ki was 1.4 ± 0.1 µM.
With `CCC1C[N+]2(Cc3cccc(F)c3)CCC1C[C@H]2[C@H](O)c1ccnc2ccccc12` (some centres unmarked) [DHCD 3F] the Ki was 0.3 ± 0.02 µM.
With `CCC1C[N+]2(Cc3cccc(OC(F)(F)F)c3)CCC1C[C@H]2[C@H](O)c1ccnc2ccccc12` (some centres unmarked) [DHCD 3OCF3, N-(3-trifluoromethoxybenzyl)-10,11-dihydrocinchonidinium bromide] the Ki was 6.8 ± 0.3 µM.
Molecule `CCC1C[N+]2(Cc3ccc(C(F)(F)F)cc3)CCC1C[C@H]2[C@H](O)c1ccnc2ccccc12` (some centres unmarked) [DHCD 4CF3] has a Ki of 3.2 ± 0.2 µM.
For `CCC1C[N+]2(Cc3ccc(F)cc3)CCC1C[C@H]2[C@H](O)c1ccnc2ccccc12` (some centres unmarked) [DHCD 4F, N-(4-fluorobenzyl)-10,11-dihydrocinchonidinium bromide], the Ki was 4.3 ± 0.2 µM.
Work on `CC[C@H]1CN2CC[C@H]1C[C@@H]2[C@@H](O)c1ccnc2ccccc12` [DHCN, 10,11-dihydrocinchonine] yielded a Ki of 1.2 ± 0.1 µM.
